What all share (type): cell-based
Test [1] relates to Spores of T. Mentagrophytes. The test is described as follows: In vitro antimycotic activity, MIC, spores of T. mentagrophytes. Conditions: for MIC: Trichophyton mentagrophytes, 96 h; for activity against T. mentagrophytes: in vitro, in words. The method, then:
(§1) A laboratory propagated strain of C. albicans, originally isolated from an infected skin lesion of a patient, was grown in Mueller-Hinton broth for 18 hours at 35° C. Plates were then seeded with the broth culture and allowed to air-dry at room temperature (22° C.) for about 10-15 minutes. Forty lambda of the 2% aqueous solutions or of serial half-step dilutions in water were then pipetted onto the seeded Mueller-Hinton agar plates. The plates were then incubated for 24 hours at 35° C. and zones of inhibition were then recorded. The Minimum Inhibitory Concentration (MIC) was the lowest concentration of the test material which produced a zone of inhibition against the organism. The MIC for each test material (antihistamine) is listed in the enclosed table. Table 2 lists the MIC's against C. albicans while Table 3 lists the MIC's against in vitro-grown spores of the human pathogen T. mentagrophytes. This strain was isolated from a human infection and was grown on Sabourand-Dextrose agar for 2 weeks. The spores were collected by flooding the agar plates after the 2 week growth period with a 0.01% solution of Tween-80 (sorbitol ester) and then filtering the Tween solution through gauze mesh to collect the suspension of spores. Sabourand-Dextrose agar plates are then seeded with the spore suspension. After air-drying, 40 lambda of each test solution is pipetted onto the plates and the plates left to incubate for 4 days at 22° C.

Test [2] deals with C. albicans. The test is described as follows: In vitro antimycotic activity, MIC, C. albicans. Conditions: for MIC: Candida albicans. The method, then:
as §1

For test [3], the system named is Corenybacterium minutissimum. The test is described as follows: In vitro zone of inhibition screening, MIC, Corenybacterium minutissimum. The method, then:
(§2) The 2% solutions listed above were diluted further with sterile water, using serial half-step dilutions. Forty lambda of each were then pipetted onto seeded Mueller-Hinton agar plates. The agar plates were then incubated for 24 hours at 35° C. and zones of inhibition were then recorded. The Minimum Inhibitory Concentration (MIC) was the lowest concentration of the test material which produced a zone of inhibition against the organism.
(§3) Stock cutaneous strains of each organism were grown in Mueller-Hinton broth for 18 hours at 35° C. Plates were seeded with the 18 hour broth culture, allowed to air dry at room temperature (about 10 minutes) and then used for determination of zones of inhibition as outlined above.

Test [4] relates to Cutaneous Bacteria. Briefly: In vitro zone of inhibition screening, overall (cutaneous bacteria). Conditions: for Rank Order: highest inhibition (rank 1) to lowest (rank 5); for minimum inhibitory concentrations as low as: in vitro antibacterial testing, lowest MIC. The procedure: as §2, §3
The test system of test [5] is Escherichia coli. Briefly: In vitro zone of inhibition screening, MIC, Escherichia coli. Conditions: for MIC: Escherichia coli. The method, then:
as §2, §3

Test [6] concerns Staphylococcus aureus. The test is described as follows: In vitro zone of inhibition screening, MIC, Staphylococcus aureus. Conditions: aqueous solution, seeded Mueller-Hinton agar, 24 hours at 35° C.; for MIC: Staphylococcus aureus, read-out: Minimum Inhibitory Concentration, SA. The procedure:
as §2, §3

Test [7] deals with Micrococcus luteous. Briefly: In vitro zone of inhibition screening, MIC, Micrococcus luteous. The note with it: aqueous solution, seeded Mueller-Hinton agar, 24 hours at 35° C.; for MIC: Micrococcus, read-out: Minimum Inhibitory Concentration, ML. The method, then:
as §2, §3

The subject of test [8] is Pseudomonas aeroginosa. The test is described as follows: In vitro zone of inhibition screening, MIC, Pseudomonas aeroginosa. Conditions: for MIC: Pseudomonas. The procedure: as §2, §3
Where [9] appears, read: aqueous solution, Sabourand-Dextrose agar, 4 days at 22° C., read-out: MIC, spores of T. Mentagrophytes.
Where [10] appears, read: aqueous solution, Mueller-Hinton agar, 24 hours at 35° C., read-out: MIC, C. albicans.
[11] abbreviates: aqueous solution, seeded Mueller-Hinton agar, 24 hours at 35° C., read-out: Minimum Inhibitory Concentration, CM.
Setting [12] is: aqueous solution, seeded Mueller-Hinton agar, 24 hours at 35° C., read-out: Minimum Inhibitory Concentration, EC.
Where [13] appears, read: aqueous solution, seeded Mueller-Hinton agar, 24 hours at 35° C., read-out: Minimum Inhibitory Concentration, PA.
[14] abbreviates: aqueous solution, Sabourand-Dextrose agar, 4 days at 22° C.
Where [15] appears, read: aqueous solution, Mueller-Hinton agar, 24 hours at 35° C.
Setting [16] is: aqueous solution, seeded Mueller-Hinton agar, 24 hours at 35° C.

This is an account of results in US4873265A, “Anti-infective methods and compositions” (priority 1988, dated 1989).

Converted amounts (≈) assume the structure as drawn. Read-outs that look alike come from different tables or passages of the source.

For `CN(C)CCC(c1ccc(Br)cc1)c1ccccn1` (stereo not shown) [Brompheniramine, brompheniramine], the MIC in test [1] (setting [9]) was 20000 µg/mL (≈ 62.6 mM); in test [2] (setting [10]), 20000 µg/mL (≈ 62.6 mM); in test [3] (setting [11]) it was 3000 µg/mL (≈ 9.4 mM); in test [5] (setting [12]) it was 5000 µg/mL (≈ 15.7 mM); in test [6] it was 10000 µg/mL (≈ 31.3 mM); in test [7], 5000 µg/mL (≈ 15.7 mM). Moreover, the MIC in test [8] (setting [13]) is 10000 µg/mL (≈ 31.3 mM). Also, the “Rank Order” value in test [4] was found to be 2. In addition, the “minimum inhibitory concentrations as low as” value in test [4] is 0.5-1%.

`CN(C)CCC(c1ccc(Cl)cc1)c1ccccn1` (stereo not shown) [Chlorpheniramine, chlorpheniramine]: the “MIC, spores of T. Mentagrophytes” value in test [1] (setting [14]) was “No inhibition”. Moreover, in test [1], the “activity against T. mentagrophytes” value is listed as “ineffective”. The MIC in test [2] (setting [10]) was determined as 20000 µg/mL (≈ 72.8 mM); in test [3] (setting [11]) it was 5000 µg/mL (≈ 18.2 mM); in test [5] (setting [12]) it was 5000 µg/mL (≈ 18.2 mM); in test [6], 10000 µg/mL (≈ 36.4 mM); in test [7], 5000 µg/mL (≈ 18.2 mM); in test [8] (setting [13]) it was 10000 µg/mL (≈ 36.4 mM). For the same compound, the “Rank Order” value in test [4] is recorded as 2.

Take `CN(C)CCOC(c1ccccc1)c1ccccc1` [Dimenhydrinate, dimenhydrinate]: the “MIC, spores of T. Mentagrophytes” value in test [1] (setting [14]) came to 20000 µg/mL. In addition, the “MIC, C. albicans” value in test [2] (setting [15]) came out at 20000 µg/mL (≈ 78.3 mM). In test [3] (setting [16]), the “Minimum Inhibitory Concentration, CM” value came out at 5.0 mg/mL. In test [4], the “Rank Order” value is reported as 3 and the “minimum inhibitory concentrations as low as” value turned out to be 0.5%. The “Minimum Inhibitory Concentration, EC” value in test [5] (setting [16]) is 5.0 mg/mL. Besides, the “Minimum Inhibitory Concentration, SA” value in test [6] amounted to 10.0 mg/mL. Moreover, the “Minimum Inhibitory Concentration, ML” value in test [7] worked out at 10.0 mg/mL. In addition, in test [8] (setting [16]), the “Minimum Inhibitory Concentration, PA” value worked out at 10.0 mg/mL.

On to `CN(C)CCOC(c1ccccc1)c1ccccc1` [Diphenhydramine, diphenhydramine], for which the MIC is 10000 µg/mL (≈ 39.2 mM) in test [1] (read-out: MIC, spores of T. Mentagrophytes, aqueous solution, Sabourand-Dextrose agar, 4 days at 22° C.); 10000 µg/mL (≈ 39.2 mM) in test [2] (24 h, read-out: MIC, C. albicans, aqueous solution, Mueller-Hinton agar, 24 hours at 35° C.); 2500 µg/mL (≈ 9.79 mM) in test [3] (24 h, read-out: Minimum Inhibitory Concentration, CM, aqueous solution, seeded Mueller-Hinton agar, 24 hours at 35° C.); 2500 µg/mL (≈ 9.79 mM) in test [5] (24 h, read-out: Minimum Inhibitory Concentration, EC, aqueous solution, seeded Mueller-Hinton agar, 24 hours at 35° C.); 5000 µg/mL (≈ 19.6 mM) in test [8] (24 h, read-out: Minimum Inhibitory Concentration, PA, aqueous solution, seeded Mueller-Hinton agar, 24 hours at 35° C.). The “Rank Order” value in test [4] amounted to 1. Besides, the “minimum inhibitory concentrations as low as” value in test [4] stood at 0.25%. Further, the “Minimum Inhibitory Concentration, SA” value in test [6] amounted to 2.5 mg/mL. In addition, the “Minimum Inhibitory Concentration, ML” value in test [7] stood at 2.5 mg/mL.

Take `CN(C)CCOC(C)(c1ccccc1)c1ccccn1` (stereo not shown) [Doxylamine]: the “MIC, spores of T. Mentagrophytes” value in test [1] (setting [14]) is recorded as “No inhibition”. Further, the “MIC, C. albicans” value in test [2] (setting [15]) is listed as “No inhibition”. Moreover, the “Rank Order” value in test [4] stood at 5.

Take `COc1ccc(CN(CCN(C)C)c2ccccn2)cc1` [Pyrilamine]: the MIC was 20000 µg/mL (≈ 70.1 mM) in test [1] (setting [9]), 10000 µg/mL (≈ 35 mM) in test [3] (setting [11]) and 10000 µg/mL (≈ 35 mM) in test [5] (setting [12]). In addition, in test [1], the “activity against T. mentagrophytes” value is recorded as “showed activity”. The “MIC, C. albicans” value in test [2] (setting [15]) was “No inhibition”. Besides, in test [4], the “Rank Order” value stood at 4.

Turning to `CN(C)CCN(Cc1ccccc1)c1ccccn1` [Tripelennamine, tripelennamine], the MIC amounted to 20000 µg/mL (≈ 78.3 mM) in test [1] (setting [9]); 20000 µg/mL (≈ 78.3 mM) in test [2] (setting [10]); 5000 µg/mL (≈ 19.6 mM) in test [3] (setting [11]); 5000 µg/mL (≈ 19.6 mM) in test [5] (setting [12]); 10000 µg/mL (≈ 39.2 mM) in test [6]; 10000 µg/mL (≈ 39.2 mM) in test [7]. Further, the MIC in test [8] (setting [13]) stood at 10000 µg/mL (≈ 39.2 mM). Also, in test [4], the “Rank Order” value was determined as 3. Also, the “minimum inhibitory concentrations as low as” value in test [4] is 0.5-1%.

Consider `Cc1ccc(/C(=C\CN2CCCC2)c2ccccn2)cc1` [Triprolidine, triprolidine], for which the “MIC, spores of T. Mentagrophytes” value in test [1] (setting [14]) is “No inhibition”. The “activity against T. mentagrophytes” value in test [1] is recorded as “ineffective”. For the same compound, the MIC worked out at 20000 µg/mL (≈ 71.8 mM) in test [2] (setting [10]); 5000 µg/mL (≈ 18 mM) in test [3] (setting [11]); 5000 µg/mL (≈ 18 mM) in test [5] (setting [12]); 10000 µg/mL (≈ 35.9 mM) in test [6]; 10000 µg/mL (≈ 35.9 mM) in test [7]; 10000 µg/mL (≈ 35.9 mM) in test [8] (setting [13]). In addition, the “Rank Order” value in test [4] amounted to 3. Further, the “minimum inhibitory concentrations as low as” value in test [4] was 0.5-1%.
